According to ChEMBL document CHEMBL1201862, “PubChem BioAssay data set” (2004):
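Five concentrations, 48 hours, 96-well plates. GI50 is the concentration that inhibits growth by half.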 Activity calls are given as the source filed them. No stated cut-off is given here; in the data, active = GI50 up to about 1.1 µM and inactive = higher.

Columns and labels:
Experiment in all cases: inhibition of tumour cell growth, NCI panel, 48 h
NCI-H460 = system: NCI-H460
HCT-15 = system: HCT-15
Malme-3M = system: Malme-3M
SF-295 = system: SF-295
UACC-62 = system: UACC-62
SK-MEL-5 = system: SK-MEL-5
DU-145 = system: DU-145
SN12C = system: SN12C
ACHN = system: ACHN
U-251 = system: U-251
M14 = system: M14
UACC-257 = system: UACC-257
NCI-H522 = system: NCI-H522
SF-268 = system: SF-268
SK-MEL-2 = system: SK-MEL-2
HCC 2998 = system: HCC 2998
KM12 = system: KM12
BT-549 = system: BT-549
SK-OV-3 = system: SK-OV-3

C#CCCOC1(OC)N=NC(C)(C)O1 (stereo not drawn)
GI50 (NCI-H460): > 100 µM (inactive)
GI50 (HCT-15): > 100 µM
GI50 (Malme-3M): > 100 µM (inactive)
GI50 (SF-295): > 100 µM (inactive)
GI50 (UACC-62): > 100 µM (inactive)
GI50 (SK-MEL-5): > 100 µM (inactive)
GI50 (DU-145): > 100 µM (inactive)
GI50 (SN12C): > 100 µM (inactive)
GI50 (ACHN): > 100 µM (inactive)
GI50 (U-251): > 100 µM (inactive)
GI50 (M14): > 100 µM (inactive)
GI50 (UACC-257): > 100 µM (inactive)
GI50 (NCI-H522): > 100 µM (inactive)
GI50 (SF-268): > 100 µM (inactive)
GI50 (SK-MEL-2): > 100 µM (inactive)
GI50 (HCC 2998): > 100 µM (inactive)
GI50 (KM12): > 100 µM (inactive)

COc1cc(C2c3cc4c(cc3C3OC[C@@H]2C3CO)OCO4)cc(OC)c1OC (stereo partly drawn)
GI50 (NCI-H460): 20.3 µM (inactive)
GI50 (BT-549): 29.9 µM (inactive)
GI50 (HCT-15): 23.3 µM
GI50 (Malme-3M): 67.6 µM (inactive)
GI50 (SF-295): 28.8 µM (inactive)
GI50 (SK-OV-3): 54.2 µM (inactive)
GI50 (SK-MEL-5): 11.5 µM (inactive)
GI50 (ACHN): 80.4 µM (inactive)
GI50 (U-251): 34.7 µM (inactive)
GI50 (M14): 31.3 µM (inactive)
GI50 (UACC-257): 18.2 µM (inactive)
GI50 (NCI-H522): 23 µM (inactive)
GI50 (SF-268): 31.3 µM (inactive)
GI50 (SK-MEL-2): 40.2 µM (inactive)
GI50 (KM12): 23 µM (inactive)

O=C(c1ccco1)N1CCCN(C(=O)c2ccco2)C1=S
GI50 (NCI-H460): > 100 µM (inactive)
GI50 (BT-549): > 100 µM (inactive)
GI50 (HCT-15): > 100 µM
GI50 (Malme-3M): 33 µM (inactive)
GI50 (UACC-62): > 100 µM (inactive)
GI50 (SK-OV-3): > 100 µM (inactive)
GI50 (SK-MEL-5): > 100 µM (inactive)
GI50 (DU-145): > 100 µM (inactive)
GI50 (SN12C): > 100 µM (inactive)
GI50 (ACHN): > 100 µM (inactive)
GI50 (U-251): > 100 µM (inactive)
GI50 (M14): > 100 µM (inactive)
GI50 (UACC-257): > 100 µM (inactive)
GI50 (SF-268): > 100 µM (inactive)
GI50 (SK-MEL-2): 46.5 µM (inactive)
GI50 (KM12): 82 µM (inactive)

NC(=O)NC(=O)c1cccc(C(=O)NC(N)=O)n1
GI50 (NCI-H460): > 100 µM (inactive)
GI50 (HCT-15): > 100 µM
GI50 (Malme-3M): > 100 µM (inactive)
GI50 (SF-295): > 100 µM (inactive)
GI50 (UACC-62): > 100 µM (inactive)
GI50 (SK-OV-3): > 100 µM (inactive)
GI50 (SK-MEL-5): > 100 µM (inactive)
GI50 (DU-145): > 100 µM (inactive)
GI50 (SN12C): > 100 µM (inactive)
GI50 (ACHN): > 100 µM (inactive)
GI50 (U-251): > 100 µM (inactive)
GI50 (M14): > 100 µM (inactive)
GI50 (UACC-257): > 100 µM (inactive)
GI50 (NCI-H522): > 100 µM (inactive)
GI50 (SF-268): > 100 µM (inactive)
GI50 (SK-MEL-2): > 100 µM (inactive)
GI50 (HCC 2998): > 100 µM (inactive)
GI50 (KM12): > 100 µM (inactive)

COc1cc(Cl)c(CC(=O)c2c[nH]c3ccccc23)cc1OC
GI50 (NCI-H460): > 100 µM (inactive)
GI50 (BT-549): 28.2 µM (inactive)
GI50 (HCT-15): > 100 µM
GI50 (Malme-3M): > 100 µM (inactive)
GI50 (SF-295): 16.1 µM (inactive)
GI50 (UACC-62): > 100 µM (inactive)
GI50 (SK-OV-3): 8.07 µM (inactive)
GI50 (SK-MEL-5): > 100 µM (inactive)
GI50 (DU-145): > 100 µM (inactive)
GI50 (SN12C): 58.5 µM (inactive)
GI50 (ACHN): 8.55 µM (inactive)
GI50 (U-251): 8.38 µM (inactive)
GI50 (M14): > 100 µM (inactive)
GI50 (UACC-257): > 100 µM (inactive)
GI50 (SF-268): 13.7 µM (inactive)
GI50 (SK-MEL-2): 16.7 µM (inactive)
GI50 (KM12): > 100 µM (inactive)
